According to patent US20050170345A1, “Neuroglobin is up-regulated by and protects neurons from hypoxic-ischemic injury” (priority 2001, published 2005):
Entries after “also recorded” stand apart in the source; their conditions may differ.

Experiments:
Ngb mRNA = Ngb mRNA expression in HN33 cells (RT-PCR, quantitative RT-PCR, Northern blot); assay type: cell-based, mouse
Protocol: (§1) HN33 cells were cultured as described (Lee et al. (1990) J Neurosci. 10: 1779-1787; Shi et al. (1998) J Neurochem., 70:1035-1044; Jin et al. (2000) Proc Nati Acad Sci USA., 97:10242-10247). Cells were plated at 4×10^5 cells/well onto uncoated, 6-well plastic culture dishes in Dulbecco's modified Eagle's medium containing 10% (v/v) fetal bovine serum, 100 units/ml of penicillin and 100 μg/ml of streptomycin, and maintained at 37° C. in humidified 95% air/5% CO2. Cells were treated with hemin (typically 50 μM) or 8-Br-cGMP (10 μM) for up to 3 days, without daily replacement. To suppress sGC or PKG activity, cells were pretreated for 1 hour with inhibitors before adding other reagents.
RT-PCR and Northern blot analyses were carried out as described previously (Zhu and Zhang (1999) Biochem Biophys Res Commun., 258:87-93). Briefly, total RNA from treated and untreated cells was extracted using a RNeasy Mini Kit (QIAGEN Operon, Valencia, Calif.), and DNA-free total RNA (2 μg per sample) was reverse-transcribed into first-strand cDNA using the Reverse Transcription System and Oligo-dT12-18 (GIBCO-BRL, Rockville, Md.) (Id.). Sequences of the primers used for PCR amplification were: Ngb forward, 5′ CTCTGGAACATGGCACTGTC 3′ (nt 135-154, SEQ ID NO:7); Ngb reverse, 5′ GCACTGGCTCGTCTCTTACT 3′ (nt 547-528, SEQ ID NO:8); β-actin forward, 5′ CACAGGCATTGTGATGGACTC 3′ (nt 524-544, SEQ ID NO:9); β-actin reverse, 5′ GCTCAGGAGGAGCAATGATCT 3′ (nt 582-563, (SEQ ID NO:10). Primers were designed based on the published sequences of these genes and were synth esized by QIAGEN Operon. All PCR primer pairs gave rise to only one discrete band of the expected size. PCR reactions were carried out in a total volume of 25 μl containing 2 μl cDNA, 1×PCR buffer (Boehringer Mannheim, Mannheim, FRG), 200 μM dNTPs, 0.6 U Taq DNA polymerase (Boehringer Mannheim), and 0.2 μM primers. The optimal conditions for amplification (temperature and cycle number) were determined experimentally according to previously published procedures (Id.). Different ratios of Ngb to b-actin primer pairs were tested to ensure that Ngb and b-actin were amplified with similar efficiency, and a kinetic study was undertaken to establish the number of cycles sufficient to detect both Ngb and b-actin without reaching saturation for either. The parameters chosen for PCR amplification were 95° C. for 1 minute, 57° C. for 45 seconds, 72° C. for 1 minute for 25-30 cycles, and a final incubation at 72° C. for 10 minutes. PCR products were separated on 1.2% agarose gels, visualized by ethidium bromide staining, and quantified using a ChemiImage System (Alpha Innotech Corporation, San Leandro, Calif.).
For Northern blotting, 15 μg of total RNA from each sample was fractionated on 1% formaldehyde/agarose gels and transferred to Hybond-N nylon membranes (Amersham Pharmacia, Piscataway, N.J.). Filters were hybridized with probes for Ngb MRNA, and β-actin mRNA at 68° C. in hybridization buffer (Clontech, Palo Alto, Calif.). ^32P-radiolabeled DNA probes were synthesized using cDNA obtained from RT-PCR amplification.
Quantitative RT-PCR analysis was carried out as described previously.8 PCR reactions were carried out in a total volume of 25 μl containing 1 μI cDNA, 1×PCR buffer (Boehringer Mannheim), 200 μM dNTPs, 0.6 U Taq DNA polymerase (Boehringer Mannheim), two pairs of primers (one pair for the Ngb gene, another for the b-actin gene used as an internal control). The optimal conditions for amplification (the proportion between the two pairs of primers, temperatures, and cycle numbers) were determined experimentally according to previously established procedures.8 PCR products were separated on 1.2% agarose gels, visualized by ethidium bromide staining, and quantified using a ChemiImage System (Alpha Innotech Corporation).

Ngb protein = Ngb protein expression in HN33 cells (Western blot); assay type: cell-based, mouse
Protocol: as §1
Cells were washed twice in PBS, and whole-cell extracts were prepared by adding 10 volumes of 1× sample buffer containing 2% SDS, 100 mM dithiothreitol, 60 mM Tris (pH 6.8) and 10% glycerol, and boiled for 5 minutes. Protein concentrations were determined using Bradford Protein Assays (Bio-Rad, Hercules, Calif.); 30 μg of protein was analyzed by 12% or 15% SDS-PAGE and transferred to Immuno-Blot PVDF membranes (Bio-Rad). Membranes were probed with affinity-purified anti-Ngb antibody, which was produced by immunizing with a synthetic peptide corresponding to amino-acids 35-50 (NH2-CLSSPEFLDHIRKVML-COOH, (SEQ ID NO:11) of mouse Ngb (Sun et aL (2001 Proc Natl Acad Sci USA. 98:15306-15311),and the signal was detected with Boehringer Mannheim chemiluminescence blotting kits. Differences in protein expression on Western blots were quantified using a GS-710 calibrated imaging densitometer and Quantity One software (Bio-Rad).

HN33 cells = assay: HN33 cell viability (MTT); assay type: cell-based, mouse
Protocol: Cell viability was assessed by measuring formazan produced by the reduction of 3-(4,5-dimethylthiazol-2-yl)-2,5-diphenyl tetrazolium bromide (MTT) in viable cells.3 Cells were incubated with 5 mg/ml of MTT (Sigma) at 37° C. for 2 hours. The medium was removed and cells were solubilized with dimethylsufoxide and transferred to 96-well plates. The formazan reduction product was detected by measuring absorbance at 570 nm in a Cytofluor Series 4000 multi-well plate-reader (PerSeptive Biosystems, Framingham, Mass.). Results were expressed as a percentage of control absorbance, measured in normoxic cultures, after subtracting background absorbance (measured in freeze-thawed cultures) from all values.

cGMP = assay: Intracellular cGMP content in HN33 cells (enzyme immunoassay); assay type: cell-based, mouse
Protocol: HN33 cells (4×10^4 cells in 100 μl) were plated on 96-well microtiter plates and treated with 50 μM hemin for 2, 8, 16, or 24 hours. Intracellular cGMP concentrations were measured in quadruplicate using a cGMP enzyme-immunoassay system (Amersham Pharmacia).

[1] = test system: transient forebrain ischemia; details: rats, direct administration after transient forebrain ischemia; cited from earlier work
K562 cells = details: 50 μM hemin for 2-3 days; cited from earlier work
[2] = test system: vascular endothelial growth factor; details: aortic smooth muscle cells; cited from earlier work

hemin
maximal increase in neuroglobin mRNA level (Ngb mRNA; 50 μM hemin, 8-24 hours): about 4 fold | Ngb mRNA levels (Northern blot) (Ngb mRNA; HN33 cells, 50 μM hemin for 16 hours): about 4 fold | Maximal induction of Ngb mRNA expression (RT-PCR, normalized for β-actin) (Ngb mRNA; HN33 cells, hemin 24 h, maximal at 25-50 μM): 4 fold | maximal increase in neuroglobin protein level (Ngb protein; 50 μM hemin, 8-24 hours): about 4 fold | persistence of Ngb protein induction (Ngb protein; HN33 cells, 50 μM hemin): at least 3 days | time at which induction of Ngb protein was evident (Ngb protein; HN33 cells, 50 μM hemin): 2 h | induction of Ngb protein (Ngb protein; HN33 cells, 50 μM hemin for up to 3 days): about 4 times basal levels of expression | difference in viability relative to control (HN33 cells; 100 μM hemin, 24 hours, HN33 cells): significant (P<0.05) difference in viability | reduction of cell viability (HN33 cells; 100 μM hemin, HN33 cells, MTT): ~15% | effect on HN33 cell viability (HN33 cells; hemin 0-50 μM for 24 h, or 50 μM for up to 3 days, MTT): no effect on cell viability; also recorded: does not alter HN33 cell viability | cGMP levels by 24 hours (cGMP; 50 μM hemin): returned to near basal levels | increase in cGMP levels (cGMP; 50 μM hemin for 2 to 12 hours): 8- to 15 fold | increase in cGMP levels (summary) (cGMP; hemin): > 10 fold | neuroprotection: viable neurons in cerebral cortex and striatum [1]: significantly increases the number of viable neurons | cells producing a high level of hemoglobin (K562 cells): more than 50% | effect on hypoxic induction of vascular endothelial growth factor [2]: suppress
